{
  "source": "patent EP1619246A1",
  "about": "“RNA dependent RNA polymerases from coronavirus and their use in molecular biology and drug screening” (Université de la Méditerranée, Aix-Marseille II, priority 2004, dated 2006)",
  "target": "SARS CoV nsp8 RNA dependent RNA polymerase, N-terminally His-tagged (SARS-CoV replicase residues 3920-4117), SEQ ID NO. 1 (Severe acute respiratory syndrome coronavirus, UniProt P0C6X7)",
  "test": "biochemical",
  "format": "biochemical",
  "data": [
    {"smiles": "Nc1nc2c(ncn2[C@@H]2O[C@H](COP(=O)(O)OP(=O)(O)OP(=O)(O)O)C[C@H]2O)c(=O)[nH]1", "note": "[3'-deoxy GTP, 3'-deoxy-GTP]", "values": [
      {"measurement": "IC50", "value": "~0.08", "unit": "µM"},
      {"measurement": "Nsp8 activity inhibition in presence of 50 µM 3'-deoxy GTP", "value": "can be inhibited"}
    ]},
    {"smiles": "CO[C@H]1/C=C/O[C@@]2(C)Oc3c(C)c(O)c4c(O)c(c(/C=N/N5CCN(C)CC5)c(O)c4c3C2=O)NC(=O)/C(C)=C\\C=C\\[C@H](C)[C@H](O)[C@@H](C)[C@@H](O)[C@@H](C)[C@H](OC(C)=O)[C@@H]1C", "note": "[Rifampicine]", "values": [
      {"measurement": "nsp8 polymerase activity in presence of Rifampicine (inhibitor of the bacterial polymerase)", "value": "activity detected"}
    ]}
  ]
}
